Experimental data published in ChEMBL document CHEMBL1142513, “Efficient solid-phase synthesis of FK228 analogues as potent antitumoral agents” (J Med Chem, 2008).

Legend:
[1] = Antitumor activity against human 253J cells after 3 days by MTT assay; assay type: functional, cell-based; conditions: 72 h
T-24 [2] = test: Growth inhibition of human T24 cells at 5 uM after 3 days by MTT assay; assay type: functional; conditions: T-24, 72 h, read-out: GI
TCC-SUP = test: Antitumor activity against human TCC-SUP cells after 3 days by MTT assay; assay type: functional, cell-based; conditions: 72 h
PC-3 = test: Antitumor activity against human PC-3 cells after 3 days by MTT assay; assay type: functional, cell-based; conditions: PC-3, 72 h
LNCaP = test: Antitumor activity against human LNCAP cells after 3 days by MTT assay; assay type: functional, cell-based; conditions: 72 h
T-24 [3] = test: Antitumor activity against human T24 cells after 3 days by MTT assay; assay type: functional, cell-based; conditions: T-24, 72 h
T-24 [4] = test: Growth inhibition of human T24 cells at 0.5 uM after 3 days by MTT assay; assay type: functional; conditions: T-24, 72 h, read-out: GI
DU-145 = test: Antitumor activity against human DU145 cells after 3 days by MTT assay; assay type: functional, cell-based; conditions: DU-145, 72 h

Row | Compound | IC50 [1] [nM] | inhibition of growth at 5 µM (T-24 [2]) [%] | IC50 (TCC-SUP) [nM] | IC50 (PC-3) [nM] | IC50 (LNCaP) [nM] | IC50 (T-24 [3]) [nM] | inhibition of growth at 0.5 µM (T-24 [4]) [%] | IC50 (DU-145) [nM]
1 | CC(C)[C@H]1NC(=O)C[C@@H]2NC(=O)[C@H](Cc3ccccc3)NC(=O)[C@H](Cc3ccccc3)NC(=O)[C@H](CSSCCNC2=O)NC1=O | 180 | > 95 | 380 | 600 | 270 | 260 | 70 | 180
2 | CC(C)[C@H]1NC(=O)C[C@@H]2NC(=O)[C@H](Cc3cccc4ccccc34)NC(=O)[C@H](Cc3cccc4ccccc34)NC(=O)[C@H](CSSCCNC2=O)NC1=O |  | > 95 |  |  |  | 60 | 70 | 
